According to patent US20250262209A1, “TREATMENT OF GASTROINTESTINAL DISEASES” (Aclipse Two, Inc., priority 2022, published 2025):

Experiments:
[1] = system: monocytes from PBMC differentiated into M2 macrophage; assay: M2 macrophage differentiation assay; type: cell-based, human
Excerpt: The purpose of this study was to evaluate the effects of lobeglitazone and other thiazolidinediones on M2 macrophage differentiation. The test articles and vehicles used in this study were lobeglitazone sulfate, pioglitazone HCl, and rosiglitazone.
M2 macrophage differentiation assay timeline was as follows in Table 10.
• (1) Isolate monocytes from PBMC using StemCell® monocyte isolation kit • (2) Count cell and adjust the cell density to 0.5×10^6 cells/ml with fresh complete differentiation medium. Add 5 μL M-CSF stock ([…]) to each 5 ml cell mixture. • (3) Seed isolated monocyte 100 μL per well on 96-well plate. • (4) Add test articles as the plate map using D300e (final concentration in μM). • (5) Differentiate the monocyte to macrophage in the presence of M-CSF to […] for 4 days. • (6) On day 4, add additional medium containing M-CSF. • (7) Add test compounds using D300e (final volume=[…]). • (8) On day 6, add IL-4 at 5× final concentration (IL-4 stock 0.1 mg/ml: dilute 10 μl stock into 10 ml medium for 100 ng/ml. Add 50 μl 100 ng/ml IL-4 to each well containing 200 μL medium to reach 20 ng/ml). • (9) On day 8, spin down the plates at 300×g for 5 min and collect the supernatant for cytokine quantification using MSD. • (10) M2 associated macrophage cytokines of interest are listed below in Table 12.
• (11) Collect cells for flow analysis of viability/CD11c/CD163/CD206.
Flow cytometry and surface marker CD163, CD11c, and CD206 were applied to characterize M2 repolarization. No stain and all stain with surface marker antibody to confirm the optimization of gating strategy.

[2] = system: DSS-induced IBD model in female Balb/c mice; assay: DSS-induced IBD model: body weight, DAI score, colon length and weight; type: in vivo; settings: for DAI score: lobeglitazone groups (0.36, 1.20, 3.61 mg/kg PO QD)
Experimental: The purpose of this study was to test the efficacy of compound lobeglitazone in the DSS-induced IBD model in female Balb/c mice following oral administration. The study was conducted at an AAALAC accredited facility, and all animal study procedures were approved by the Institutional Animal Care and Use Committee (IACUC).
Precise amount of lobeglitazone sulfate (lot: EW34258-13-P1; purity: 97.6%) was weighted out into a clean tube, 0.5% CMC was added and vortexed fully, then sonicated 2-3 minutes to get an even suspension. The concentration of the solution was 0.361 mg/ml, 0.120 mg/mL, and 0.036 mg/mL. The dosing solution was freshly made daily until the end of the study. The compound was orally (PO), 10 mL/kg daily dosed for 10 days.
Totally 125.82 mg cyclosporin A (CSA, purity 98%) was weighed out into a clean tube, 2.055 mL castor oil was added firstly, then 39.046 mL […] (with 0.1% tween80) was added, vortexed fully, then sonicated 10 min to get a clear solution. The concentration of the solution was 3 mg/mL. The compound was PO, 10 mL/kg daily dosed for 10 days.
5% DSS preparation: […] DSS powder was weighted out into a clean bottle, 1 L Milli Q water was added subsequently, the solution was stirred until it was clear. Then 5% DSS was transferred to water bottle of the animal. 5% DSS was freshly made daily until the end of the study.
A total of 50 (7 weeks old) female Balb/c were purchased from Beijing Vital River Laboratory Animal Technology Co., Ltd. Animals were acclimatized for 1 week prior to the experiment. All the in vivo experimental procedures were approved by the institutional animal care and use committee (IACUC). All euthanasia was performed using carbon dioxide inhalation and all efforts were made to minimize animal suffering.
At the beginning of the study, randomization was performed based on body weight. All animals were randomly assigned to one of six groups (Table 1). The study schedule is described in FIG. 1.
DAI score was calculated by the sum of weight loss score, stool consistency score, and occult-gross bleeding score. Body weight loss was calculated by comparison with the body weight on day 1. Feces samples were collected from each individual animal, and stool consistency and occult-gross bleeding were evaluated according to Table 2. Stool Consistency was evaluated by the appearance of the feces. Occult-gross bleeding was evaluated using Fecal Occult Blood test strips. Occult bleeding score of 1 will be assigned if light or dark purple color developed within 20 seconds and longer than 15 seconds. Occult bleeding score of 2 was assigned if light or dark purple color developed within 15 seconds. Occult-gross bleeding score of 3 would be assigned if blood was visible in the feces.
Animals were euthanized by CO2 at the end of study. Colon length and colon weight (cecum is not included) were recorded, and macroscopic changes were scored based on Table 2. The colon was cleaned using saline, and all feces were removed before weight measurement. The middle part of colon was collected in cassette and fixed in 10% neutral buffered formalin (NBF) for H&E and PAS staining. For left colon, mucosal from colon surface was removed and then snap frozen in liquid nitrogen and store at −80° C. for QT-PCR analysis of TNF-α, IL-10, CCL2, and IL-1β. QT-PCR primers were purchased from Sangon Biotech Co., Ltd.
In vivo animal data were presented as mean±SEM. Statistical analysis was performed by one-way ANOVA followed by Dunnett's multiple comparison. […] The difference was considered significance when p<0.05.

[3] = lobeglitazone groups (0.36, 1.20, 3.61 mg/kg PO QD 10 days), vs control group

Compound: COc1ccc(Oc2cc(N(C)CCOc3ccc(CC4SC(=O)NC4=O)cc3)ncn2)cc1 (centres unmarked) [lobeglitazone, 5-(4-(2-((6-(4-Methoxyphenoxy)pyrimidin-4-yl)(methyl)amino)ethoxy)benzyl)thiazolidine-2,4-dione]
- concentration at which M2 repolarization was promoted (M2 macrophage surface markers, flow cytometry) ([1]; CD163, CD11c, CD206, donor 1 and 2): ~0.025 UM
- Eotaxin-2 expression ([1]; cytokine analysis (MSD), donor 1): remarkable promotion
- MDC expression ([1]; cytokine analysis (MSD), donor 3): remarkable promotion
- body weight changes ([2]; 0.36 mg/kg PO QD, vs control group): no significant body weight changes
- body weight changes ([2]; 1.20 mg/kg PO QD, vs control group): no significant body weight changes
- body weight changes ([2]; 3.61 mg/kg PO QD, day 2, vs control (no drug) group): significantly reduced
- colon length [2, 3]: did not significantly increase
- colon length/weight ratio [2, 3]: did not significantly decrease
- colon weight [2, 3]: did not significantly change
- DAI score ([2]; vs control group): did not significantly reduce
- DAI score ([2]; vs control group, listed as Lobeglitazone): did not significantly decrease
